Test results from patent publication US9708314B2, “Heterocyclic amide compound” (NISSAN CHEMICAL INDUSTRIES, LTD., priority 2013, dated 2017).

Experiments:
Assay type in all cases: in vivo
[1] = test system: Echinochloa oryzacola Vasing.; test: Test Example 1: herbicidal activity, application before weed generation in submerged conditions; details: Application herbicide amount 320 g/ha; Seventeenth Table
Method in brief: (§1)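 Submerged pot test: alluvial soil, 4 cm water, seeds sown mixed, 2.5-leaf rice transplanted; emulsion in water applied to surface day of sowing, dose g/ha; greenhouse 25–30° C.; 3 wk; 0–5 rating.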

[2] = test system: Monochoria vaginalis; test: as above; details: Application herbicide amount 320 g/ha; Seventeenth Table
Method in brief: as §1

[3] = test system: Scirpus juncoides; test: as above; details: Application herbicide amount 320 g/ha; Seventeenth Table
Method in brief: as §1

[4] = test system: Abutilon theophrasti; test: Test Example 4: herbicidal effect by application to foliage (diluvial soil, plastic box); details: Application herbicide amount 320 g/ha; foliage application
Method in brief: (§2)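 Read-out is a 0–5 visual grade of herbicidal ratio (5: ≥90%, almost withered; 0: ≤5%) taken three weeks after treatment. Compound was applied as a diluted emulsion to stem and leaf parts of 14-day greenhouse-grown plants (25° C. to 30° C.) at rates expressed as g/ha.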

[5] = test system: Alopecurus myosuroides; test: as above; details: Application herbicide amount 320 g/ha; foliage application
Method in brief: as §2

[6] = test system: Amaranthus retroflexus; test: as above; details: Application herbicide amount 320 g/ha; foliage application
Method in brief: as §2

[7] = test system: Apera spica-venti.; test: as above; details: Application herbicide amount 320 g/ha; foliage application
Method in brief: as §2

[8] = test system: Avena fatua; test: as above; details: Application herbicide amount 320 g/ha; foliage application
Method in brief: as §2

[9] = test system: Chenopodium album; test: as above; details: Application herbicide amount 320 g/ha; foliage application
Method in brief: as §2

[10] = test system: Digitaria ciliaris; test: as above; details: Application herbicide amount 320 g/ha; foliage application
Method in brief: as §2

[11] = test system: Echinochloa crus-galli var. crus-galli; test: as above; details: Application herbicide amount 320 g/ha; foliage application
Method in brief: as §2

[12] = test system: Galium spurium; test: as above; details: Application herbicide amount 320 g/ha; foliage application
Method in brief: as §2

[13] = test system: Lolium multiflorum Lam.; test: as above; details: Application herbicide amount 320 g/ha; foliage application
Method in brief: as §2

[14] = test system: Setaria viridis; test: as above; details: Application herbicide amount 320 g/ha; foliage application
Method in brief: as §2

[15] = test system: Stellaria media; test: as above; details: Application herbicide amount 320 g/ha; foliage application
Method in brief: as §2

[16] = test system: Veronica persica; test: as above; details: Application herbicide amount 320 g/ha; foliage application
Method in brief: as §2

[17] = test system: Beta vulgaris ssp. vulgaris; test: Test Example 4: effect on crop by application to foliage (diluvial soil, plastic box); details: Application herbicide amount 320 g/ha; foliage application
Method in brief: as §2

[18] = test system: Brassica campestris L.; test: as above; details: Application herbicide amount 320 g/ha; foliage application
Method in brief: as §2

[19] = test system: Glycine max; test: as above; details: Application herbicide amount 320 g/ha; foliage application
Method in brief: as §2

[20] = test system: Triticum aestivum; test: as above; details: Application herbicide amount 320 g/ha; foliage application
Method in brief: as §2

[21] = test system: Zea mays; test: as above; details: Application herbicide amount 320 g/ha; foliage application
Method in brief: as §2

[22] = test system: directly sowed Oryza sativa; test: as above; details: Application herbicide amount 320 g/ha; foliage application
Method in brief: as §2

Row | SMILES | A: Echinochloa oryzicola Vasing. (herbicidal effect grade) [1] | C: Monochoria vaginalis (herbicidal effect grade) [2] | B: Scirpus juncoides (herbicidal effect grade) [3] | M (Abutilon theophrasti) herbicidal effect grade [4] | J (Alopecurus myosuroides) herbicidal effect grade [5] | N (Amaranthus retroflexus) herbicidal effect grade [6] | L (Apera spica-venti.) herbicidal effect grade [7] | I (Avena fatua) herbicidal effect grade [8] | O (Chenopodium album) herbicidal effect grade [9] | F (Digitaria ciliaris) herbicidal effect grade [10] | H (Echinochloa crus-galli var. crus-galli) herbicidal effect grade [11] | Q (Galium spurium) herbicidal effect grade [12] | K (Lolium multiflorum Lam.) herbicidal effect grade [13] | G (Setaria viridis) herbicidal effect grade [14] | P (Stellaria media) herbicidal effect grade [15] | R (Veronica persica) herbicidal effect grade [16] | f (Beta vulgaris ssp. vulgaris) effect on crop grade [17] | g (Brassica campestris L.) effect on crop grade [18] | d (Glycine max) effect on crop grade [19] | e (Triticum aestivum) effect on crop grade [20] | other results
1 | O=C(Nc1nnco1)c1ccc(C(F)(F)F)n2c(-c3ccc(Cl)nc3)nnc12 [1-150] | 5 (Herbicidal ratio of 90% or more (almost completely withered)) | 5 (Herbicidal ratio of 90% or more (almost completely withered)) | 5 (Herbicidal ratio of 90% or more (almost completely withered)) | 3 (Herbicidal ratio of 40% or more and less than 70%) | 1 (Herbicidal ratio of 5% or more and less than 20%) | 5 (Herbicidal ratio of 90% or more (almost completely withered)) | 3 (Herbicidal ratio of 40% or more and less than 70%) | 3 (Herbicidal ratio of 40% or more and less than 70%) | 5 (Herbicidal ratio of 90% or more (almost completely withered)) | 4 (Herbicidal ratio of 70% or more and less than 90%) | 5 (Herbicidal ratio of 90% or more (almost completely withered)) | 4 (Herbicidal ratio of 70% or more and less than 90%) | 3 (Herbicidal ratio of 40% or more and less than 70%) | 3 (Herbicidal ratio of 40% or more and less than 70%) | 5 (Herbicidal ratio of 90% or more (almost completely withered)) | 5 (Herbicidal ratio of 90% or more (almost completely withered)) | 5 (Herbicidal ratio of 90% or more (almost completely withered)) | 5 (Herbicidal ratio of 90% or more (almost completely withered)) | 4 (Herbicidal ratio of 70% or more and less than 90%) | 3 (Herbicidal ratio of 40% or more and less than 70%) | c (Zea mays) effect on crop grade [21]: 0 (Herbicidal ratio of 5% or less (almost no effect)); b (directly sowed Oryza sativa) effect on crop grade [22]: 3 (Herbicidal ratio of 40% or more and less than 70%)
2 | COc1ccc(Cc2nnc3c(C(=O)Nc4nnco4)ccc(C(F)(F)F)n23)cc1 [1-151] | 5 (Herbicidal ratio of 90% or more (almost completely withered)) | 3 (Herbicidal ratio of 40% or more and less than 70%) | 5 (Herbicidal ratio of 90% or more (almost completely withered)) | 3 (Herbicidal ratio of 40% or more and less than 70%) | 1 (Herbicidal ratio of 5% or more and less than 20%) | 5 (Herbicidal ratio of 90% or more (almost completely withered)) | 2 (Herbicidal ratio of 20% or more and less than 40%) | 3 (Herbicidal ratio of 40% or more and less than 70%) | 5 (Herbicidal ratio of 90% or more (almost completely withered)) | 5 (Herbicidal ratio of 90% or more (almost completely withered)) | 5 (Herbicidal ratio of 90% or more (almost completely withered)) | 4 (Herbicidal ratio of 70% or more and less than 90%) | 3 (Herbicidal ratio of 40% or more and less than 70%) | 3 (Herbicidal ratio of 40% or more and less than 70%) | 5 (Herbicidal ratio of 90% or more (almost completely withered)) | 5 (Herbicidal ratio of 90% or more (almost completely withered)) | 5 (Herbicidal ratio of 90% or more (almost completely withered)) | 5 (Herbicidal ratio of 90% or more (almost completely withered)) | 4 (Herbicidal ratio of 70% or more and less than 90%) | 3 (Herbicidal ratio of 40% or more and less than 70%) | c (Zea mays) effect on crop grade [21]: 0 (Herbicidal ratio of 5% or less (almost no effect)); b (directly sowed Oryza sativa) effect on crop grade [22]: 0 (Herbicidal ratio of 5% or less (almost no effect))
3 | C#CCN(C)c1nnc2c(C(=O)Nc3nnc(C)o3)ccc(C(F)(F)F)n12 [1-152] | 5 (Herbicidal ratio of 90% or more (almost completely withered)) | 3 (Herbicidal ratio of 40% or more and less than 70%) | 4 (Herbicidal ratio of 70% or more and less than 90%) | 3 (Herbicidal ratio of 40% or more and less than 70%) | 0 (Herbicidal ratio of 5% or less (almost no effect)) | 4 (Herbicidal ratio of 70% or more and less than 90%) | 1 (Herbicidal ratio of 5% or more and less than 20%) | 2 (Herbicidal ratio of 20% or more and less than 40%) | 5 (Herbicidal ratio of 90% or more (almost completely withered)) | 4 (Herbicidal ratio of 70% or more and less than 90%) | 4 (Herbicidal ratio of 70% or more and less than 90%) | 1 (Herbicidal ratio of 5% or more and less than 20%) | 1 (Herbicidal ratio of 5% or more and less than 20%) | 3 (Herbicidal ratio of 40% or more and less than 70%) | 4 (Herbicidal ratio of 70% or more and less than 90%) | 3 (Herbicidal ratio of 40% or more and less than 70%) | 4 (Herbicidal ratio of 70% or more and less than 90%) | 1 (Herbicidal ratio of 5% or more and less than 20%) | 3 (Herbicidal ratio of 40% or more and less than 70%) | 0 (Herbicidal ratio of 5% or less (almost no effect)) | c (Zea mays) effect on crop grade [21]: 0 (Herbicidal ratio of 5% or less (almost no effect)); b (directly sowed Oryza sativa) effect on crop grade [22]: 0 (Herbicidal ratio of 5% or less (almost no effect))
4 | Cc1nnc(NC(=O)c2ccc(C(F)(F)F)n3c(N(C)CCC#N)nnc23)o1 [1-153] | 3 (Herbicidal ratio of 40% or more and less than 70%) | 4 (Herbicidal ratio of 70% or more and less than 90%) | 3 (Herbicidal ratio of 40% or more and less than 70%) | 3 (Herbicidal ratio of 40% or more and less than 70%) | 1 (Herbicidal ratio of 5% or more and less than 20%) | 4 (Herbicidal ratio of 70% or more and less than 90%) | 2 (Herbicidal ratio of 20% or more and less than 40%) | 3 (Herbicidal ratio of 40% or more and less than 70%) | 5 (Herbicidal ratio of 90% or more (almost completely withered)) | 4 (Herbicidal ratio of 70% or more and less than 90%) | 5 (Herbicidal ratio of 90% or more (almost completely withered)) | 4 (Herbicidal ratio of 70% or more and less than 90%) | 1 (Herbicidal ratio of 5% or more and less than 20%) | 4 (Herbicidal ratio of 70% or more and less than 90%) | 5 (Herbicidal ratio of 90% or more (almost completely withered)) | 4 (Herbicidal ratio of 70% or more and less than 90%) | 5 (Herbicidal ratio of 90% or more (almost completely withered)) | 3 (Herbicidal ratio of 40% or more and less than 70%) | 5 (Herbicidal ratio of 90% or more (almost completely withered)) | 2 (Herbicidal ratio of 20% or more and less than 40%) | c (Zea mays) effect on crop grade [21]: 0 (Herbicidal ratio of 5% or less (almost no effect)); b (directly sowed Oryza sativa) effect on crop grade [22]: 3 (Herbicidal ratio of 40% or more and less than 70%)
